Measurements reported in PMC10108347, “Heterobifunctional Ligase Recruiters Enable pan-Degradation of Inhibitor of Apoptosis Proteins” (Journal of Medicinal Chemistry, 2023).

Columns and labels:
VHL30 = VHL30 (Homo sapiens, UniProt P40337); experiment: Immunoblotting (western blot) quantification of VHL30 levels in MM.1S cells
[1] = molecular target: T1, plasma protein (HSA column) (Homo sapiens, UniProt P02768); experiment: Plasma protein binding estimated by HPLC on a […] HSA column; assay type: in vitro ADME; conditions: CHIRALPAK HSA column (50 × 3 mm, 5 μm), estimated by an HPLC-based method, read-out: PPB (plasma protein binding) (converted)
T1 construct: purchased
How it was run: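 % PPB was estimated from log retention time on an HSA column (50 × 3 mm, 5 μm, 30 °C), calibrated against log K of literature-PPB reference drugs. Samples were eluted with 50 mM ammonium acetate pH 7.4 and an iPrOH gradient to 30%, with UV detection at 254 nm.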

Sequence of VHL30 (P40337 whole entry): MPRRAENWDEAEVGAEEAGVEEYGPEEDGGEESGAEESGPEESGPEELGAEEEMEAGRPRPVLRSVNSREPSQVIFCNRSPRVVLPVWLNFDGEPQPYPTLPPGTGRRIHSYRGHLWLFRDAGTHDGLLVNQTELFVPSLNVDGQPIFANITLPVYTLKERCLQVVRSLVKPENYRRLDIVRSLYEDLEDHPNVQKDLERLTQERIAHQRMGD
T1 sequence (P02768 25-609): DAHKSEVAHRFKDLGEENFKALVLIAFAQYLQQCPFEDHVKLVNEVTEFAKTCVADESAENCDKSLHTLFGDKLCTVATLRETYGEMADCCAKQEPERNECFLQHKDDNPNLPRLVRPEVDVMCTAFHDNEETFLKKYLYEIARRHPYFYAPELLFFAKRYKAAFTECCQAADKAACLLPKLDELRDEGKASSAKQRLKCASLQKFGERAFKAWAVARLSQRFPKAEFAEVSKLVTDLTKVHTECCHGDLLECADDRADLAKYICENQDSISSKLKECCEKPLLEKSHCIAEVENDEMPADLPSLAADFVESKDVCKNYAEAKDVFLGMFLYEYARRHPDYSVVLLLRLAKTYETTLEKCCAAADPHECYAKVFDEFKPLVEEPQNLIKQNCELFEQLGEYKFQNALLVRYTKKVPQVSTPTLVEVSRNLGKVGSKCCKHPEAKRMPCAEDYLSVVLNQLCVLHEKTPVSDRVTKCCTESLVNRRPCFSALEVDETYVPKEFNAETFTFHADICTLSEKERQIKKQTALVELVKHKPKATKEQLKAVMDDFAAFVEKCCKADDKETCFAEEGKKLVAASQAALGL

CN[C@@H](C)C(=O)N[C@H](C(=O)N1C[C@@H](Oc2cccc(OCCCCC(=O)N[C@H](C(=O)N3C[C@H](O)C[C@H]3C(=O)N[C@@H](C)c3ccc(-c4scnc4C)cc3)C(C)(C)C)c2)C[C@H]1C(=O)N[C@@H]1CCCc2ccccc21)C1CCCCC1 [PROTAC 9, (2S,4S)-1-((S)-2-Cyclohexyl-2-((S)-2-(methylamino)propanamido)acetyl)-4-(3-((5-(((S)-1-((2S,4R)-4-hydroxy-2-(((S)-1-(4-(4-methylthiazol-5-yl)phenyl)ethyl)carbamoyl)pyrrolidin-1-yl)-3,3-dimethyl-1-oxobutan-2-yl)amino)-5-oxopentyl)oxy)phenoxy)-N-((R)-1,2,3,4-tetrahydronaphthalen-1-yl)pyrrolidine-2-carboxamide]
remaining activity at 0.1 µM (VHL30; MM1.S, 16 h, read-out: %remaining protein VHL30, MM.1S cells, 16 h treatment at 0.1 μM, normalized to loading control and DMSO): 9%
VHL30 degradation (in words) (VHL30; MM.1S cells, western blot): most pronounced after 6 h of treatment

CN[C@@H](C)C(=O)N[C@@H](C(=O)N1CCC[C@H]1C(=O)N[C@@H]1c2ccccc2C[C@@H]1OCC#CC#CCO[C@H]1Cc2ccccc2[C@H]1NC(=O)[C@@H]1CCCN1C(=O)[C@H](NC(=O)[C@H](C)NC)C1CCCCC1)C1CCCCC1 [AZD5582, reference compound]
fraction unbound at 0.5 mg/mL [1]: 0.06
